Experimental data: patent publication US20110165611A1, “DUAL MODALITY DETECTION OF APOPTOSIS” (priority 2008, published 2011)
“Also recorded” adds a separate entry of the source.

Columns and labels:
[1] = Stability of DEVD profluorophore 2 in PBS and serum-containing culture medium; format: physicochemical; conditions: 10 μM in PBS, 1 μM in medium, room temperature, 8 h
Description: Stability of DEVD profluorophore 2 in PBS and serum-containing culture medium For the stability assay, the generation of fluorescence was recorded continuously at room temperature for 8 h for a solution of 2 (10 μM) or fluorescein diacetate (10 μM) in 3 mL of PBS using a Fluorolog-3 fluorometer (Jobin Yvon, Edison, N.J.) at λex=496 nm. The procedure was repeated for a solution of 2 (1 μM) or fluorescein diacetate (1 μM) in Dulbecco's modified Eagle medium supplemented with 10% (v/v) fetal bovine serum. Cleavage of amide bond linking R110 to DEVD or hydrolysis of fluorescein diacetate would result in increased fluorescence signal.

[2] = tested on: DLD1 cells; assay: Fluorescence microscopy of viable and TRAIL-treated apoptotic DLD1 cells; format: cell-based, human; conditions: for Effect on apoptosis of DLD1 cells (annexin V staining): annexin V-Alexa Fluor 594 staining
Description: Fluorescence Microscopy Human epithelial cells from colorectal adenocarcinoma (DLD1) were seeded (1×10^4/well) in a 96-well plate 1 day before experiments. Apoptosis was induced by treating cells with TRAIL (100 μL, 250 ng/mL) for 2 h at 37° C. Both apoptotic and viable cells were incubated with 100 μL of 2 or 3 in (final concentration, 50 μM) for 2 h at 37° C. The cells were washed and stained with Annexin V-Alexa Fluor 594. After washing with PBS, the cells were transferred into Lab-Tek II chambered cover glass and visualized under Olympus Fluoview FV1000 confocal laser scanning microscope (FV1-ASW, Olympus, Melville, N.Y.) equipped with fluorescein isothiocyanate (wavelength: 495/519 nm) and Texas red filters (wavelength: 589/615 nm). In separate wells, TRAIL was added in the presence of 50 μM of Ac-DEVD-CHO to inhibit caspase 3 activity.
Fluorescence microscopy Human epithelial cells from colorectal adenocarcinoma (DLD1) were obtained from American Type Cell Culture (Manassas, Va.). Cells were seeded (1×10^4/well) in a 96-well plate (Corning, Lowell, Mass.) supplemented with RPMI-1640 medium plus 10% fetal bovine serum (FBS) 1 day before experiments. Apoptosis was induced by treating cells with TRAIL (100 μL, 250 ng/mL) for 2 h at 37° C. The treated apoptotic cells were collected in conical tubes, while the untreated viable cells were trypsinized. The cells were centrifuged at 3000 rpm for 5 mM. The pellets were washed with RPMI 1640 without phenol red. Both apoptotic and viable cells were incubated with 100 μL, of 2 or 3 in RPMI 1640 without phenol red (final concentration, 50 μM) for 2 h at 37° C. The cells were washed and resuspended in annexin-binding buffer (10 mM HEPES, 140 mM NaCl, and 2.5 mM CaCl2 [pH 7.4]). Five microliters of Alexa Fluor 594-annexin V conjugate was added into each 100 μl of cell suspension, and the cells were incubated for 15 min at room temperature. […]

[3] = target: T1, Human caspase 3 (Homo sapiens, UniProt P42574); assay: Cleavage by caspase 3 (fluorescence emission and LC-MS); format: biochemical
T1 construct: purchased Sigma-Aldrich
T1 sequence (P42574 29-175 limits assumed): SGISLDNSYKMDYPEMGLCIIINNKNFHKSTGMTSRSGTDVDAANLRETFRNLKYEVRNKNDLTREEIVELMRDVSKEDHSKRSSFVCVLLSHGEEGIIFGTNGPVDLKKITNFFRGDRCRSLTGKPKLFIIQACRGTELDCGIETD
T1 sequence (P42574 176-277 limits assumed): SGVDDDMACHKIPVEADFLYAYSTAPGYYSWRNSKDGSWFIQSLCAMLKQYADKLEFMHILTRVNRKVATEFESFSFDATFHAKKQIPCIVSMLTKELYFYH
Description: Cleavage by caspase 3 Human caspase 3 (Sigma-Aldrich) (5 μg) was reconstituted with 50 μL of deionized water (100 μg/mL) and stored in aliquots at −70° C. Before its use, an aliquot of reconstituted caspase 3 was thawed and diluted 200-fold in 1× assay buffer to a final concentration of 0.5 μg/mL. Five microliters of diluted caspase 3 was then added into a solution of 2 (22 μM) in 3 mL 1× assay buffer (20 mM HEPES [pH 7.4], with 2 mM ethylenediaminetetraacetic acid, 0.1% 3-[(3-cholamidopropyl)dimethylammonio]-1-propanesulfonate, and 5 mM dithiothreitol). The reaction mixture was incubated in cuvet in dark at room temperature and the emission spectra were recorded at intervals of 0, 10, 20, 30 and 60 min on a Fluorolog 3 fluorometer (HORIBA, Edison, N.J.) with an excitation wavelength (λex) of 496 nm.
To further confirm cleavage of 2 by caspase 3, 5 μL of caspase 3 (0.5 μg/mL) was mixed with 10 μL of 1 mM solution of 2 dissolved in 1× assay buffer. After 1 h at room temperature, the reaction mixture was injected into LC-MS system.

[4] = tested on: DLD1 cells; assay: Cellular uptake and efflux of DEVD peptides 2 and 3, fluorescence analysis; format: cell-based, human
Description: Cellular uptake and efflux of DEVD peptides 2 and 3—fluorescence analysis DLD1 cells were seeded (1×10^4/well) in a 96-well plate 1 day before experiments. The DLD1 cells were sequentially treated with 100 μL of the following agents at 37° C.: (A) 25 μM each DEVD conjugate for 2 h; (B) 25 μM each DEVD conjugate for 2 h followed by TRAIL (150 ng/L) for 2 h; (C) 25 μM each DEVD conjugate for 2 h, drug-free culture medium for 2 h, and TRAIL (150 ng/L) for 2 h; and (D) 25 μM each DEVD conjugate for 2 h, drug-free culture medium for 24 h, and TRAIL (150 ng/L) for 2 h. The cells were washed with PBS twice before each medium replacement. After treatment, the cells were lysed with 100 μL of lysis buffer (Sigma) for […] at room temperature. The fluorescence intensity of cleaved R110 was measured using a TECAN microplate reader (San Jose, Calif.). The measurement parameters were as follows: excitation wavelength, 485 nm; emission wavelength, 520 nm; excitation and emission bandwidth, both 12.0 nm; gain, 50; number of flashes, 10; and integration time, 30 μs. The measurements were performed 4 times each.
Uptake and release kinetics of DEVD peptides in normal and apoptotic cells. DLD-1 cells were seeded (1×10^4/well) in 96 well plate 1 days before experiment. […] The fluorescent intensity of cleaved R110 was measured using TECAN microplate reader (San Jose, Calif.). […]

[5] = Stability of 99mTc-chelate 4, ligand challenge with cysteine and histidine; format: physicochemical; conditions: 0.01 M cysteine or histidine in PBS, 37° C., 1 and 5 h
Description: A large excess of competing donors cysteine and histidine was used as a means of evaluating the complex's tendency to undergo transchelation. […] The samples were incubated at 37° C. and analyzed by HPLC at 1- and 5-h intervals.

[6] = tested on: activated caspase 3 in liver; assay: Fluorescence microscopic analysis of liver from mice injected 99mTc-chelate 4; format: in vivo, mouse; conditions: anti-Fas-treated vs PBS-treated liver, 2 h after i.v. injection
Description: The tissue slices were fixed using 4% paraformaldehyde for 15 min at room temperature. After PBS washing, the samples were blocked with 10% goat serum at 37° C. for 30 min, followed by 1 μg/mL of rabbit anti-mouse-activated caspase 3 monoclonal antibody (R&D Systems, Minneapolis, Minn.) at 4° C. overnight. Texas red-conjugated goat anti-rabbit IgG (1:1000, Invitrogen, Eugene, Oreg.) was used as second antibody at room temperature for 1 h. Cell nuclei were counterstained with 3 μg/mL of Hoechst 33342 at room temperature for 5 min. The slices were mounted and visualized under a Zeiss Axio Observer.Z1 fluorescence microscope (Carl Zeiss MicroImaging GmbH, Göttingen, Germany).

[7] = tested on: DLD1 cells; assay: Cellular uptake and efflux of 99mTc-chelate 4, radiotracer analysis; format: cell-based, human
Description: The medium was replaced with 2 mL of medium containing radiotracers 99 mTc-chelate 4 [Ac-DEVD-R110-D-SAAC-99mTc(CO)3] (˜40 μCi/mL) or its fragment R110-D-SAAC-99 mTc(CO)3 (˜40 μCi/mL). The cells were subsequently incubated for 60 and 120 min before the monolayers were scraped, transferred into 5-mL tubes. The tubes were briefly vortexed and 100 μL DLD1 cell suspension were transferred into a microcentrifuge tube containing 500 μL of a 75:25 mixture of silicon oil (density 1.05, Aldrich) and mineral oil (density 0.872, Acros). The mixture was centrifuged at 14,000 rpm for 5 min. After freezing the tubes with liquid nitrogen, the bottom tips containing the cell pellet were cut off. The cell pellets and the supernatants were counted with a γ-counter (Perkin-Elmer). The protein content in 100 μl cell suspension was quantified in a separate experiment using the Bio-Rad protein assay kit according to the manufacturer's protocol. For efflux study, cells were incubated with each radiotracer for 2 hrs, then the medium was removed and the cells washed with medium twice. The cells were incubated with 2 mL of fresh medium for additional 60 min, 120 min, and 180 min. The radioactivity in the cell pellets and media were counted as described before. Activity ratios of the cell pellet to medium ([cpm/g protein in pellet]/[cpm/g medium]) were calculated and plotted against time. The experiments were performed in pentaplicate.

[8] = tested on: apoptotic liver; assay: Gamma imaging in murine liver apoptosis model (anti-Fas); format: in vivo, mouse; conditions: 300 μCi i.v., imaging 120 min after injection
Description: We used a murine liver apoptosis model to evaluate whether chelate 4 could be used to image apoptosis in vivo. F. G. Blankenberg, J. F. Tait, R. E. Davis, L. Naumovski, K. Ohtsuki, S. Kopiwoda, M. J. Abrams, M. Darkes, R. C. Robbins, H. T. Maecker, H. W. Strauss, Proc. Natl. Acad. Sciences USA 1998, 95, 6349-6354; F. G. Blankenberg, P. D. Katsikis, J. F. Tait, R. E. Davis, L. Naumovski, K. Ohtsuki, S. Kopiwoda, M. J. Abrams, H. W. Strauss, J. Nucl. Med. 1999, 40, 184-191. Male Balb/c mice (10-12 weeks old, weight 20-25 g) were injected intravenously with an anti-Fas monoclonal antibody (10 μg/mouse) to induce apoptosis in the liver. […] Radionuclide imaging was acquired 120 min after the injection of 4.
Gamma Imaging and Biodistribution For γ-imaging study, two male Balb/c mice (10-12 weeks old, weight 20-25 g) (Charles River, Wilmington, Mass.) were injected intravenously with a purified anti-Fas monoclonal antibody (10 μg/mouse) (Pharmingen, San Diego, Calif.). Two mice injected with PBS were used as a control group. […] The organs of interest were excised and weighed, and radioactivity was counted in a gamma counter. The stomach and intestines were emptied of food contents prior to radioactivity measurements. The percentage of injected dose per gram (% ID/g) was calculated by dividing the % ID/organ by the weight of the tissue.

Molecule: CC(=O)Oc1ccc2c(c1)Oc1cc(OC(C)=O)ccc1C21OC(=O)c2ccccc21 [fluorescein diacetate, reference compound]
- Stability in PBS and culture medium with 10% FBS (generation of fluorescence) [1]: relatively rapid hydrolysis in both solutions

Molecule: Ac-DEVD-CHO
- Effect of caspase 3 inhibitor on fluorescent signal from 3 ([2]; 50 μM Ac-DEVD-CHO with TRAIL): significantly reduced the fluorescent signal from 3
- Effect on apoptosis of DLD1 cells (annexin V staining) [2]: did not inhibit the apoptosis of DLD1 cells

Molecule: Ac-DEVD-R110-D-SAAC-Fmoc [Compound 2]
- Fluorescence change after introduction of caspase 3 ([3]; 22 μM, over 60 min, λex 496 nm): large increase in fluorescence
- Fluorescence emission without exposure to caspase 3 ([3]; 22 μM, λex 496 nm, room temperature): near-baseline emission
- Site of hydrolytic cleavage by caspase 3 (LC-MS) ([3]; 1 h at room temperature): occurred selectively at the amide bond between DEVD and R110
- Degradation on incubation with caspase 3 ([3]; fluorescence increase and LC-MS): completely degraded
- Uptake in viable tumor cells: reversibility (efflux in drug-free medium 2 or 24 h) ([4]; 25 μM 2 h, then drug-free medium, then TRAIL): reversible process
- Increase of fluorescence intensity upon TRAIL treatment ([4]; 25 μM 2 h followed by TRAIL (150 ng/mL) 2 h vs no TRAIL): 27 fold
- Stability in PBS and culture medium with 10% FBS (generation of fluorescence) [1]: stable in both PBS and culture medium supplemented with serum; also recorded: remarkable stability in both PBS and culture medium supplemented with serum

Molecule: Ac-DEVD-R110-D-SAAC-^99mTc(CO)3 [^99mTc-chelate 4]
- Transchelation under cysteine/histidine challenge [5]: No transchelation was observed
- Cleavage of fluorogenic probe in liver sections [6]: shown only in the apoptotic liver but not in the normal liver
- Uptake in DLD1 cells (cell pellet to medium activity ratio) ([7]; 1-2 h of incubation, compared with fragment): accumulated significantly more in the cells than its fragment did; also recorded: significantly higher uptake in DLD1 cells
- Efflux / retention in DLD1 cells after wash ([7]; 2 h loading, fresh medium 60-180 min): washed out of the cells over time; also recorded: gradually washed out
- Liver uptake, anti-Fas-treated vs PBS-treated mice (radionuclide imaging) [8]: Significantly higher uptake

B1: TRAIL: tumor necrosis factor-related apoptosis-inducing ligand, recombinant human (protein, UniProt P50591 1-281, looked up)
Tumor necrosis factor ligand …: MAMMEVQGGPSLGQTCVLIVIFTVLLQSLCVAVTYVYFTNELKQMQDKYSKSGIACFLKEDDSYWDPNDEESMNSPCWQVKWQLRQLVRKMILRTSEETISTVQEKQQNISPLVRERGPQRVAAHITGTRGRSNTLSSPNSKNEKALGRKINSWESSRSGHSFLSNLHLRNGELVIHEKGFYYIYSQTYFRFQEEIKENTKNDKQMVQYIYKYTSYPDPILLMKSARNSCWSKDAEYGLYSIYQGGIFELKENDRIFVSVTNEHLIDMDHEASFFGAFLVG
- Effect on apoptosis of DLD1 cells (annexin V staining) [2]: induced significant apoptosis
